# Assay results from US20250121087A1, “ANTIBODY-DRUG CONJUGATES COMPRISING ANTI-B7-H3 ANTIBODIES” (priority 2020, published 2025).
# Tested on: JIMT-1 xenograft
# Assay: In vivo efficacy, JIMT-1 tumor xenograft (tumor volume, body weight)
# Settings: control conjugate, 5 mg/kg i.v.; BALB/c nu/nu mice
# Experimental: T-20-AB2.1, T-23-AB2.1, T-Int-102-D1-5 AB2.1, and T-Int0112-AB2.1 were prepared with 20 mg scale reaction. After purification by HIC column, final samples were concentrated to 5-10 mg/ml protein.
# In vivo efficacy of T-20-AB2.1 and T-23-AB2.1 was measured by tumor xenograft studies in mice. Female BALB/c nu/nu were injected subcutaneously in the right flank with suspensions of 5×10^6 of JIMT-1 cells respectively in PBS. Mice were randomized into study groups when tumors reached approximately 150 mm^3. T-DM1 (5 mg/kg) and T-20-AB2.1 and T-23-AB2.1 conjugates (0.3 mg/kg, QW X^4) were given i.v. All treatment groups consisted of 6 to 10 animals per group, and tumor size was monitored twice weekly using caliper measurement. The tumor mass was calculated as volume=(width×width×length)/2.
substance,measurement,value
T-DM1,activity in JIMT-1 xenograft versus the conjugates of the disclosure,less active
